Assay results reported in US4132790A.
Read-outs that look alike come from different tables or passages of the source.

How the values were obtained:
solubility = type: physicochemical; conditions: monoammonium salt
Pseudomonas solanacearum = type: in vivo; conditions: scale 0 to 4; for Disease Rating: light infection in controls; for rating: heavy infestation in controls
[1] = system: Ascaris lumbricoides var. suum; assay: anthelmintic test in infected mice, treated feed; type: in vivo; conditions: Example 13, 0.05 percent in diet, control 2.66
Text: The feeds were utilized as diets for separate groups of mice, five mice per group. About twelve hours after initiation of the feeding, the mice were infected with Ascaris lumbricoides var. suum ova. Another group of five mice was fed the non-medicated feed to serve as a control but was similarly infected at the same time with Ascaris lumbricoides var. suum. All groups were fed their respective feed and maintained under normal laboratory conditions for a period of eight days, at which time all mice were taken off feed. On the ninth day, all mice were sacrified and the lungs examined to determine the presence, and if present, numbers, of lesions of Ascaris lumbricoides var. suum.
Another evaluation was conducted under the procedures reported in Example II, except that the rates were varied. The results were as follows:
In a further evaluation, the monoammonium salts of A16886I and A16886II were separately evaluated for the control of Ascaris lumbricoides var. suum. The evaluations were conducted in accordance with the procedure reported in Example 11 at a concentration in the diet of 0.05 percent.

Xanthomonas vesicatoria = assay: field trial, bacterial spot control on tomato plants; type: in vivo; conditions: for Percent Bacterial Spot Control First Reading: one week; for Percent Bacterial Spot Control Second Reading: two weeks
Description: (§1) A mixture of the monoammonium salt of A16886I and the monoammonium salt of A16886II was tested under field conditions for the control of Xanthomonas vesicatoria (bacterial spot) on mature bearing tomato plant. The mixture of the two salts was dispersed in water at a concentration of 100, 200, or 400 parts per million and applied to the plants at the rate of 75 gallons per acre. Application was made with a CO2 sprayer at 50 psi. Plants were sprayed twice, on successive days; after the second spray had dried, all plants were wounded by sand blasting and then within one minute the plants were inoculated with a bacterial inoculum of Xanthomonas vesicatoria. Three days later, a third spray application of the aqueous formulation of A16886 was made. Readings were made one week and two weeks after the last spray treatment. Controls consisted of groups of plants (1) sand blasted and inoculated; (2) sand blasted only; (3) untreated; and (4) treated with streptomycin (on the same three-day spraying schedule, at a concentration of 100, 200, or 400 parts per million of aqueous solution, using a rate of 75 gallons per acre), sand blasted, and inoculated. The results were as set forth in the following table, in which crop injury is reported on a scale of 0-10, with 0 = no injury and 10 = dead plants; and control of bacterial spot is reported on a percentage basis.

tomato plant = assay: field trial, crop injury; type: in vivo; conditions: scale 0 = no injury, 10 = dead plants; for Crop Injury Ratings First Reading: one week; for Crop Injury Ratings Second Reading: two weeks
Description: as §1

SMILES | solubility in acetonitrile and other organic solvents (solubility) | solubility in lower alkanols (solubility) | solubility in water (solubility) | Disease Rating (Pseudomonas solanacearum; Example 7, 10 ppm) | Disease Rating (Pseudomonas solanacearum; Example 7, 100 ppm) | rating (Pseudomonas solanacearum; Example 8, 200 ppm) | rating (Pseudomonas solanacearum; Example 8, 400 ppm) | Average Number of Lung Lesions Per Group [1] | Percent Bacterial Spot Control First Reading (Xanthomonas vesicatoria; 100 parts/million) [%] | Percent Bacterial Spot Control Second Reading (Xanthomonas vesicatoria; 100 parts/million) [%] | Percent Bacterial Spot Control First Reading (Xanthomonas vesicatoria; 200 parts/million) [%] | Percent Bacterial Spot Control Second Reading (Xanthomonas vesicatoria; 200 parts/million) [%] | Percent Bacterial Spot Control First Reading (Xanthomonas vesicatoria; 400 parts/million) [%] | Percent Bacterial Spot Control Second Reading (Xanthomonas vesicatoria; 400 parts/million) [%] | Crop Injury Ratings First Reading (tomato plant; 100 parts/million) | Crop Injury Ratings Second Reading (tomato plant; 100 parts/million) | Crop Injury Ratings First Reading (tomato plant; 200 parts/million) | Crop Injury Ratings Second Reading (tomato plant; 200 parts/million) | Crop Injury Ratings First Reading (tomato plant; 400 parts/million) | Crop Injury Ratings Second Reading (tomato plant; 400 parts/million)
COC1(NC(=O)CCCC(N)C(=O)O)C(=O)N2C(C(=O)O)=C(COC(N)=O)CS[C@@H]21 (some centres unmarked) [A16886I, 7-(5-amino-5-carboxyvaleramido)-3-(carbamoyloxymethyl)-7-methoxy-3-cephem-4-carboxylic acid] | essentially insoluble | slightly soluble | very soluble | 2 | 4 | 4 | 4 | 0.46 | – | – | – | – | – | – | – | – | – | – | – | –
NC(=O)OCC1=C(C(=O)O)N2C(=O)C(NC(=O)CCCC(N)C(=O)O)[C@H]2SC1 (some centres unmarked) [A16886II, 7-(5-amino-5-carboxyvaleramido)-3-(carbamoyloxymethyl)-3-cephem-4-carboxylic acid] | essentially insoluble | slightly soluble | very soluble | 1 | 4 | – | – | 0.20 | – | – | – | – | – | – | – | – | – | – | – | –
[H]/N=C(/N)N[C@H]1[C@H](O)[C@@H](O)[C@H](O[C@@H]2O[C@@H](C)[C@](O)(C=O)[C@H]2O[C@@H]2O[C@@H](CO)[C@H](O)[C@@H](O)[C@@H]2NC)[C@@H](N/C(N)=N\[H])[C@@H]1O [Streptomycin] | – | – | – | – | – | – | – | – | 83 | 57 | 81 | 37 | 83 | 59 | 0 | 0 | 0 | 0 | 0 | 0
